Results from PubChem BioAssay AID1963451 (Molecular Pharmacology Branch, DTP, NCI, 2024).
Several values for one entry are separate records, joined by “and”; a condition that tells them apart may be missing. Identical values can stand only once.

Test system: 521955-158-R6-J3-PDC complex spheroid growth, % test/control
Assay: Anticancer human tumor 521955-158-R6-J3-PDC patient-derived pancreatic carcinoma cell line growth inhibition [Asc]
Conditions: for viability, T/C: stronger effect = lower value; active means viability on the fitted dose curve at most 10% of control; inactive means the rest
Outline: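 Complex solid-tumor spheroids incorporating human endothelial and mesenchymal stem cells received single agents or combinations over half-log dilution ranges anchored to clinical Cmax.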

[1] = curve of first compound, second compound 0.00316 µM
[2] = curve of first compound, second compound 0.01 µM
[3] = curve of first compound, second compound 0.0316 µM
[4] = curve of first compound, second compound 0.1 µM
[5] = curve of first compound, second compound 0.316 µM
[6] = curve of first compound, second compound 1 µM
[7] = second compound 0.0316 µM, first compound 0.00949 µM
[8] = second compound 0.0316 µM, first compound 0.03 µM
[9] = second compound 0.0316 µM, first compound 0.0949 µM
[10] = second compound 0.0316 µM, first compound 0.3 µM
[11] = second compound 0.0316 µM, first compound 0.949 µM
[12] = second compound 0.0316 µM, first compound 3 µM
[13] = second compound 0.1 µM, first compound 0.00949 µM
[14] = second compound 0.1 µM, first compound 0.03 µM
[15] = second compound 0.1 µM, first compound 0.0949 µM
[16] = second compound 0.1 µM, first compound 0.3 µM
[17] = second compound 0.1 µM, first compound 0.949 µM
[18] = second compound 0.1 µM, first compound 3 µM
[19] = second compound 0.316 µM, first compound 0.00949 µM
[20] = second compound 0.316 µM, first compound 0.03 µM
[21] = second compound 0.316 µM, first compound 0.0949 µM
[22] = second compound 0.316 µM, first compound 0.3 µM
[23] = second compound 0.316 µM, first compound 0.949 µM
[24] = second compound 0.316 µM, first compound 3 µM
[25] = second compound 1 µM, first compound 0.00949 µM
[26] = second compound 1 µM, first compound 0.03 µM
[27] = second compound 1 µM, first compound 0.0949 µM
[28] = second compound 1 µM, first compound 0.3 µM
[29] = second compound 1 µM, first compound 0.949 µM
[30] = second compound 1 µM, first compound 3 µM
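Further: spheroids exposed to compounds for 7 days.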
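Wherever viability, T/C is given: 100% = DMSO vehicle control wells.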

Cc1nc(N2CCC3(CC2)COC(C)C3N)c(CO)nc1Sc1ccnc(N)c1Cl (configuration not stated) + CNC(C)C(=O)NC1CN(S(=O)(=O)c2cccc(S(=O)(=O)N3CCC4CCC(C(=O)NC(c5ccccc5)c5ccccc5)N4C(=O)C(NC(=O)C(C)NC)C3)c2)CCC2CCC(C(=O)NC(c3ccccc3)c3ccccc3)N2C1=O
inactive: viability, T/C (second compound 0.00316 µM, first compound 0.00949 µM) 99.5% | viability, T/C (second compound 0.00316 µM, first compound 0.03 µM) 88.7% | viability, T/C (second compound 0.00316 µM, first compound 0.0949 µM) 73.2% | viability, T/C (second compound 0.00316 µM, first compound 0.3 µM) 86.7% | viability, T/C (second compound 0.00316 µM, first compound 0.949 µM) 73.4% | viability, T/C (second compound 0.00316 µM, first compound 3 µM) 55% | viability, T/C (second compound 0.01 µM, first compound 0.00949 µM) 109% | viability, T/C (second compound 0.01 µM, first compound 0.03 µM) 74% | viability, T/C (second compound 0.01 µM, first compound 0.0949 µM) 79.4% | viability, T/C (second compound 0.01 µM, first compound 0.3 µM) 87.7% | viability, T/C (second compound 0.01 µM, first compound 0.949 µM) 69.9% | viability, T/C (second compound 0.01 µM, first compound 3 µM) 57.9% | viability, T/C [7] 90% | viability, T/C [8] 83.1% | viability, T/C [9] 81.1% | viability, T/C [10] 73.4% | viability, T/C [11] 63.6% | viability, T/C [12] 55% | viability, T/C [13] 94.6% | viability, T/C [14] 79.5% | viability, T/C [15] 82.3% | viability, T/C [16] 68.5% | viability, T/C [17] 60.1% | viability, T/C [18] 60.1% | viability, T/C [19] 82.9% | viability, T/C [20] 74.9% | viability, T/C [21] 77.4% | viability, T/C [22] 67.6% | viability, T/C [23] 62.5% | viability, T/C [24] 52.9% | viability, T/C [25] 82.7% | viability, T/C [26] 79.8% | viability, T/C [27] 74.6% | viability, T/C [28] 73% | viability, T/C [29] 73.9% | viability, T/C [30] 57.6%
> 3 µM: IC50 [1] | IC50 [2] | IC50 [3] | IC50 [4] | IC50 [5] | IC50 [6]

NC1CCC(NC2CC2c2ccccc2)CC1 (configuration not stated) + CNC(C)C(=O)NC1CN(S(=O)(=O)c2cccc(S(=O)(=O)N3CCC4CCC(C(=O)NC(c5ccccc5)c5ccccc5)N4C(=O)C(NC(=O)C(C)NC)C3)c2)CCC2CCC(C(=O)NC(c3ccccc3)c3ccccc3)N2C1=O
> 0.1 µM: IC50 [1] | IC50 [2] | IC50 [3] | IC50 [4] | IC50 [5] | IC50 [6]
inactive: viability, T/C (second compound 0.00316 µM, first compound 0.000316 µM) 86% | viability, T/C (second compound 0.00316 µM, first compound 0.001 µM) 98.8% | viability, T/C (second compound 0.00316 µM, first compound 0.00316 µM) 95.5% | viability, T/C (second compound 0.00316 µM, first compound 0.01 µM) 92.6% | viability, T/C (second compound 0.00316 µM, first compound 0.0316 µM) 91.1% | viability, T/C (second compound 0.00316 µM, first compound 0.1 µM) 82.1% | viability, T/C (second compound 0.01 µM, first compound 0.000316 µM) 94% | viability, T/C (second compound 0.01 µM, first compound 0.001 µM) 85.2% | viability, T/C (second compound 0.01 µM, first compound 0.00316 µM) 77.6% | viability, T/C (second compound 0.01 µM, first compound 0.01 µM) 93% | viability, T/C (second compound 0.01 µM, first compound 0.0316 µM) 91.4% | viability, T/C (second compound 0.01 µM, first compound 0.1 µM) 82.3% | viability, T/C (second compound 0.0316 µM, first compound 0.000316 µM) 98.1% | viability, T/C (second compound 0.0316 µM, first compound 0.001 µM) 93.4% | viability, T/C (second compound 0.0316 µM, first compound 0.00316 µM) 80% | viability, T/C (second compound 0.0316 µM, first compound 0.01 µM) 93.1% | viability, T/C (second compound 0.0316 µM, first compound 0.0316 µM) 87.8% | viability, T/C (second compound 0.0316 µM, first compound 0.1 µM) 88.8% | viability, T/C (second compound 0.1 µM, first compound 0.000316 µM) 91.4% | viability, T/C (second compound 0.1 µM, first compound 0.001 µM) 80.8% | viability, T/C (second compound 0.1 µM, first compound 0.00316 µM) 68.5% | viability, T/C (second compound 0.1 µM, first compound 0.01 µM) 86.1% | viability, T/C (second compound 0.1 µM, first compound 0.0316 µM) 89.6% | viability, T/C (second compound 0.1 µM, first compound 0.1 µM) 66.3% | viability, T/C (second compound 0.316 µM, first compound 0.000316 µM) 83.8% | viability, T/C (second compound 0.316 µM, first compound 0.001 µM) 89.7% | viability, T/C (second compound 0.316 µM, first compound 0.00316 µM) 84.4% | viability, T/C (second compound 0.316 µM, first compound 0.01 µM) 89% | viability, T/C (second compound 0.316 µM, first compound 0.0316 µM) 71% | viability, T/C (second compound 0.316 µM, first compound 0.1 µM) 79.7% | viability, T/C (second compound 1 µM, first compound 0.000316 µM) 90.1% | viability, T/C (second compound 1 µM, first compound 0.001 µM) 77.8% | viability, T/C (second compound 1 µM, first compound 0.00316 µM) 76.9% | viability, T/C (second compound 1 µM, first compound 0.01 µM) 96.5% | viability, T/C (second compound 1 µM, first compound 0.0316 µM) 92.2% | viability, T/C (second compound 1 µM, first compound 0.1 µM) 83.8%

NC1CCC(NC2CC2c2ccccc2)CC1 (configuration not stated)
> 0.1 µM: IC50 (curve of compound)
inactive: viability, T/C (compound 0.000316 µM) 104% and 94% and 98.2% | viability, T/C (compound 0.001 µM) 124% and 120% and 99.5% | viability, T/C (compound 0.00316 µM) 136% and 105% and 97.8% | viability, T/C (compound 0.01 µM) 128% and 117% and 109% | viability, T/C (compound 0.0316 µM) 128% and 103% and 93.2% | viability, T/C (compound 0.1 µM) 117% and 99.7% and 89.2%

Cc1nc(N2CCC3(CC2)COC(C)C3N)c(CO)nc1Sc1ccnc(N)c1Cl (configuration not stated) + Cc1c(S(C)(=O)=O)c(-c2cc(F)cc(N3CCN(c4ccc(NS(=O)(=O)c5ccc(NC(CCN6CCC(C(=O)OCCCP(=O)(O)O)CC6)CSc6ccccc6)c(S(=O)(=O)C(F)(F)F)c5)cc4)CC3)c2)c(-c2ccc(Cl)cc2)n1C(C)C
active: viability, T/C (second compound 3.16 µM, first compound 3 µM) 8.25% | viability, T/C (second compound 10 µM, first compound 0.3 µM) 7.14% | viability, T/C (second compound 10 µM, first compound 0.949 µM) 8.9% | viability, T/C (second compound 10 µM, first compound 3 µM) 8.72%
inactive: viability, T/C [7] 81.8% | viability, T/C [8] 75% | viability, T/C [9] 57.6% | viability, T/C [10] 61.2% | viability, T/C [11] 58.6% | viability, T/C [12] 51.7% | viability, T/C [13] 77.4% | viability, T/C [14] 63.2% | viability, T/C [15] 49.1% | viability, T/C [16] 54.4% | viability, T/C [17] 39.6% | viability, T/C [18] 39.9% | viability, T/C [19] 42.6% | viability, T/C [20] 38.7% | viability, T/C [21] 41.9% | viability, T/C [22] 29% | viability, T/C [23] 31.1% | viability, T/C [24] 22.3% | viability, T/C [25] 26.3% | viability, T/C [26] 24.8% | viability, T/C [27] 22.8% | viability, T/C [28] 26% | viability, T/C [29] 15.5% | viability, T/C [30] 14.1% | viability, T/C (second compound 3.16 µM, first compound 0.00949 µM) 16.7% | viability, T/C (second compound 3.16 µM, first compound 0.03 µM) 19.9% | viability, T/C (second compound 3.16 µM, first compound 0.0949 µM) 12.2% | viability, T/C (second compound 3.16 µM, first compound 0.3 µM) 12.5% | viability, T/C (second compound 3.16 µM, first compound 0.949 µM) 11.6% | viability, T/C (second compound 10 µM, first compound 0.00949 µM) 12.8% | viability, T/C (second compound 10 µM, first compound 0.03 µM) 11.4% | viability, T/C (second compound 10 µM, first compound 0.0949 µM) 12.7%
> 3 µM: IC50 [3]
0.177 µM: IC50 [4]
< 0.00949 µM: IC50 [5] | IC50 [6] | IC50 (curve of first compound, second compound 3.16 µM) | IC50 (curve of first compound, second compound 10 µM)

O=C(c1ccc(F)c(F)c1Nc1ccc(I)cc1F)N1CC(O)([C@@H]2CCCCN2)C1
inactive: viability, T/C (compound 0.00316 µM) 87.6% and 110% and 88.3% | viability, T/C (compound 0.01 µM) 116% and 111% and 90.7% | viability, T/C (compound 0.0316 µM) 120% and 125% and 79.5% | viability, T/C (compound 0.1 µM) 105% and 98.2% and 79% | viability, T/C (compound 0.316 µM) 67.9% and 66.9% and 54% | viability, T/C (compound 1 µM) 41% and 41.8% and 29.7%
0.681 µM and 0.684 µM and 0.396 µM: IC50 (curve of compound)

NC(=O)C(=Cn1cnc(-c2cc(C(F)(F)F)cc(C(F)(F)F)c2)n1)c1cncnc1
> 0.3 µM: IC50 (curve of compound)
inactive: viability, T/C (compound 0.000949 µM) 105% and 126% and 111% | viability, T/C (compound 0.003 µM) 96.3% and 105% and 115% | viability, T/C (compound 0.00949 µM) 84.8% and 93.3% and 105% | viability, T/C (compound 0.03 µM) 98% and 98.2% and 115% | viability, T/C (compound 0.0949 µM) 124% and 107% and 73.9% | viability, T/C (compound 0.3 µM) 121% and 93.9% and 62.7%
